Converted amounts (≈) assume the structure as drawn.
Key:
[1] = target: T1, Dipeptidase 1 (Sus scrofa) (UniProt P22412); experiment: Susceptibility of compound towards porcine Dehydropeptidase-1 relative to imipenem as […] was calculated
T1 sequence (whole entry): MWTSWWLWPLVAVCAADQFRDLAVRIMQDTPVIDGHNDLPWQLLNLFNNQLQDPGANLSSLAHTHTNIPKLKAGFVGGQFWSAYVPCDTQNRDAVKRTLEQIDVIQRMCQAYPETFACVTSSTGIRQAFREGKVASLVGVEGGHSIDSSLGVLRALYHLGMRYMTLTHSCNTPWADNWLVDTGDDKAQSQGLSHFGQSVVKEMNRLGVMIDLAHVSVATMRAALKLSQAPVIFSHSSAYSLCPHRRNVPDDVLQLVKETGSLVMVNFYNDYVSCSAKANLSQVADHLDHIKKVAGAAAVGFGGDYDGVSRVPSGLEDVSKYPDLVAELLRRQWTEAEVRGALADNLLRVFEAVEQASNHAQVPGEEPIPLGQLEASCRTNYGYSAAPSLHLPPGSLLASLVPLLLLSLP

Enterococcus [2] = experiment: In vitro antibacterial activity against Enterococcus relative to thienamycin; format: functional
Escherichia coli [3] = experiment: In vitro antibacterial activity against Escherichia coli relative to thienamycin; format: functional
Enterobacter [4] = experiment: In vitro antibacterial activity against Enterobacter relative to thienamycin; format: functional
Klebsiella [5] = experiment: In vitro antibacterial activity against Klebsiella relative to thienamycin; format: functional
Pseudomonas [6] = experiment: In vitro antibacterial activity against Pseudomonas relative to thienamycin; format: functional
Proteus [7] = experiment: In vitro antibacterial activity against Proteus relative to Thienamycinv; format: functional, Proteus sp.
Serratia [8] = experiment: In vitro antibacterial activity against Serratia relative to thienamycin; format: functional
Staphylococcus aureus [9] = experiment: In vitro antibacterial activity against Staphylococcus aureus relative to thienamycin; format: functional
Escherichia coli [10] = experiment: Minimum inhibitory concentration required for the antibacterial activity against Escherichia coli; format: functional
Enterobacter [11] = experiment: Minimum inhibitory concentration required for the antibacterial activity against Enterobacter; format: functional
Klebsiella [12] = experiment: Minimum inhibitory concentration required for the antibacterial activity against Klebsiella; format: functional
Pseudomonas [13] = experiment: Minimum inhibitory concentration required for the antibacterial activity against Pseudomonas relative to Thienamycin (1); format: functional
Proteus [14] = experiment: Minimum inhibitory concentration required for the antibacterial activity against Proteus; format: functional, Proteus sp.
Serratia [15] = experiment: Minimum inhibitory concentration required for the antibacterial activity against Serratia; format: functional
Staphylococcus aureus [16] = experiment: Minimum inhibitory concentration required for the antibacterial activity against Staphylococcus aureus; format: functional
Enterococcus [17] = experiment: Minimum inhibitory concentration required for the antibacterial activity against Enterococcus; format: functional
Proteus [18] = experiment: In vitro antibacterial activity against Proteus relative to thienamycin; format: functional, Proteus sp.
Staphylococcus aureus [19] = experiment: In vitro antibacterial activity against Staphylococcus aureus (4) relative to Thienamycin (1); format: functional

| Susceptibility [1] | MIC (Escherichia coli [10]) | MIC (Enterobacter [11]) | MIC (Klebsiella [12]) | MIC (Pseudomonas [13]) | MIC (Proteus [14]) | MIC (Serratia [15]) | MIC (Staphylococcus aureus [16]) | MIC (Enterococcus [17]) | Compound | Relative potency (Enterococcus [2]) | Relative potency (Escherichia coli [3]) | Relative potency (Enterobacter [4]) | Relative potency (Klebsiella [5]) | Relative potency (Pseudomonas [6]) | Relative potency (Proteus [7]) | Relative potency (Serratia [8]) | Relative potency (Staphylococcus aureus [9]) | Relative potency (Proteus [18]) | Relative potency (Staphylococcus aureus [19]) |
| --- | --- | --- | --- | --- | --- | --- | --- | --- | --- | --- | --- | --- | --- | --- | --- | --- | --- | --- | --- |
| 0.13 | – | – | – | – | – | – | – | – | C[C@@H](O)[C@H]1C(=O)N2C(C(=O)O)=C(c3ccc(CN4CCOCC4)cc3)C[C@H]12 | 8.6 | 3.5 | 5.3 | 1.4 | 0.03 | 10.6 | 8 | 0.6 | – | – |
| 1 | 0.37 µg/mL (≈ 1.36 µM) | 0.67 µg/mL (≈ 2.46 µM) | 0.88 µg/mL (≈ 3.23 µM) | 1.79 µg/mL (≈ 6.57 µM) | 1.9 µg/mL (≈ 6.98 µM) | 0.93 µg/mL (≈ 3.42 µM) | 0.03 µg/mL (≈ 0.11 µM) | 3.6 µg/mL (≈ 13.2 µM) | C[C@@H](O)[C@H]1C(=O)N2C(C(=O)O)=C(SCCN)C[C@H]12 [THIENAMYCIN] | – | – | – | – | – | – | – | – | – | – |
| 0.06 | – | – | – | – | – | – | – | – | C[C@@H](O)[C@H]1C(=O)N2C(C(=O)[O-])=C(c3ccc(C[n+]4ccc(CCS(=O)(=O)[O-])cc4)cc3)C[C@H]12.[K+] | 4.3 | 5.7 | 7 | 1.1 | 0.04 | – | 10.6 | – | 17.1 | 0.4 |

Reference: ChEMBL document CHEMBL1151043, “The synthesis and antibacterial activity of 2-para-quarternary ammoniomethylphenyl-carbapenems” (1993)
